In patent US20100160369A1, “S1P1 Agonists and Methods of Making And Using” (EXELIXIS, INC., priority 2008, published 2010) one finds EC50 data, which are given here for 25 compounds.

Each structure is given as a SMILES string.

Assay [1] deals with T1, S1P1 (Homo sapiens, UniProt P21453). In words: Tango β-arrestin Recruitment Assay in HEK293 cells (Assay 2a). The format is cell-based. Further details: linker with TEV protease (N1a) cleavage site (C); host or cells: HEK293, transiently transfected. The text has this: For the Tango™ β-arrestin recruitment assay, the cytoplasmic C-terminus of S1P1 is tethered to the tTA transcriptional activator with a linker that contains a cleavage site for the N1a protease from tobacco etch virus (TEV protease). The C-terminus of the human β-arrestin2 protein is fused to TEV protease. Binding of an agonist recruits the β-arrestin-TEV fusion protein to the receptor resulting in cleavage of the linker and release of tTA to enter the nucleus and subsequently activate a tTA-dependent luciferase reporter gene.
Frozen HEK293 cells transiently transfected with receptor cDNAs for S1P1 (Invitrogen) were thawed and suspended in 10 mL of Pro293a-CDM culture medium (Invitrogen) supplemented with 4 mM L-Glutamine (Invitrogen), 1× Pen/Strep (100 units/mL penicillin and 100 μg/mL streptomycin, Invitrogen) and 0.1% fatty acid free BSA (Sigma-Aldrich). Cells were added to the wells of a 384-well white opaque bottom assay plate (PerkinElmer) at 3,000-6,000 cells per well and the plate was incubated for approximately 4 h in a 37° C. incubator. Test compounds were tested at maximum concentrations of 10 μM for the agonist assays. Compounds were diluted in DMSO (10 concentration points, 3-fold each) and added to the assay plate at a 1% final DMSO concentration. For each compound, there were duplicate assay plates and each assay plate had duplicate wells per concentration point. The plate was incubated at 37° C. for 30 min. The efficacy control was 5 μM S1P (Avanti). Following agonist addition, the assay plates were incubated in a 37° C. incubator for 16-18 h. Luciferase assay reagent was added and luminescence measured in an EnVision plate reader (PerkinElmer). To determine agonist activity, percent activity was calculated as [(test compound−background)/(positive control−background)* 100], where background is the luminescence of the DMSO alone control and the positive control is the luminescence from cells incubated with the efficacy control 5 μM S1P. The percent activities were plotted against compound concentration to determine EC50 using XLFit (IDBS).
Assay 1 is the CNG cAMP Assay as described in Biological Example 1. Assay 2a and 2b are the Tango™ β-arrestin Recruitment Assay in HEK293 and U2OS cells, respectively, as described in Biological Example 2. Assay 3a is the hS1P1R GTPγS Binding Assay as described in Biological Example 3. Assay 3b is the GTP-Eu Binding Assay as described in Biological Example 3. EC50's were measured unless otherwise noted. […] In the table, “nt” means the Compound was not tested and “no” means the compound was tested but had no measurable activity under the assay conditions employed.
Target sequence in this assay (P21453 whole entry, the tested form may be a part): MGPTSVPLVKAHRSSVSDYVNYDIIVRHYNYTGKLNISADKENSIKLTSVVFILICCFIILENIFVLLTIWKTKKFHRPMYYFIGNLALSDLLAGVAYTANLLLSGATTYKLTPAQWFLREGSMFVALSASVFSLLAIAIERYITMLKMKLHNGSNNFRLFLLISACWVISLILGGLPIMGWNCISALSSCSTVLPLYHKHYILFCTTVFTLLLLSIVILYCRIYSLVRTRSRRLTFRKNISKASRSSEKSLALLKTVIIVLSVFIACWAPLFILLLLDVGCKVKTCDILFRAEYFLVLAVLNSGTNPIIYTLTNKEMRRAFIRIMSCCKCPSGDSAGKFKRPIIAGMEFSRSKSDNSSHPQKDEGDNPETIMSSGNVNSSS
Target sequence in this assay (P32121 whole entry partner, the tested form may be a part): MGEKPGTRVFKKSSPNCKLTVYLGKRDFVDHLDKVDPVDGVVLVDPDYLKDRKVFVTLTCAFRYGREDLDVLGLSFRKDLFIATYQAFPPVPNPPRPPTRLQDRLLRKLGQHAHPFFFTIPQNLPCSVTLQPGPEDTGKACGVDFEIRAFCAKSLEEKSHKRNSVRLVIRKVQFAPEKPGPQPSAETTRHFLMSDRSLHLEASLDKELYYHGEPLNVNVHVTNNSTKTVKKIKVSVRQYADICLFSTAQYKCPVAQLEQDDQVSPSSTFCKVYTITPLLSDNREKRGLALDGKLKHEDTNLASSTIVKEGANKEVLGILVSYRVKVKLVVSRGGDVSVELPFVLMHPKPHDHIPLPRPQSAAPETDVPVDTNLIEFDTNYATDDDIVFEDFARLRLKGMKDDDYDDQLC

In assay [2] the target is T1, S1P1. In words: CNG cAMP Assay (Assay 1). The format is cell-based. Details: host or cells: HEK293 cells expressing the CNG channel. In a few lines:
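HEK293 cells expressing CNG channel and S1P1, membrane-potential dye loaded; compounds (top 10 μM, 10-point 3-fold, 1.8% DMSO) added with 25 μM Ro 20-1724, 500 nM NECA and 10 nM S1P for 90 min. T90/T0 fluorescence (Ex 350/Em 590 nm) normalised to NECA-alone vs DMSO; EC50 fitted.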
Target sequence in this assay (P21453 whole entry, the tested form may be a part): as the sequence (P21453 whole entry, the tested form may be a part) above

The mark [3] stands for this setting: Tango β-arrestin Recruitment Assay, read-out: Assay 2a EC50.
[4] abbreviates: Tango β-arrestin, footnote 1: Relative EC50 was measured, read-out: Assay 2a Relative EC50.
Setting [5] is: footnote 1: Relative EC50 was measured, read-out: Assay 1 Relative EC50.

As usually defined, the EC50 is the concentration at which the effect is half-maximal. Take `O=C(O)C(O)COc1cc(Cl)c(-c2noc(-c3cn4cc(C(F)(F)F)cc(Cl)c4n3)n2)cc1Cl` (stereo not shown) [Entry 58]: at S1P1 [1] (setting [3]), the EC50 is not above 100 nM. On to `Cc1ccc(Oc2cc(Cl)c3nc(-c4nc(-c5cc(F)c(CCC(=O)O)cc5Cl)no4)cn3c2)cc1` [Entry 67], for which the EC50 on S1P1 [1] (setting [3]) is not above 100 nM. As to `O=C(O)CCc1cc(Cl)c(-c2noc(-c3cn4cc(Br)cc(Br)c4n3)n2)cc1F` [Entry 71], on S1P1 [1] (setting [3]), the EC50 was not above 100 nM. Regarding `COCCOc1cc(Cl)c(-c2noc(-c3cn4cc(C(F)(F)F)cc(Cl)c4n3)n2)cc1Cl` [Entry 76], the EC50 on S1P1 [1] (setting [3]) was not above 100 nM. The same measure, in the same setting: for `CC(O)COc1c(Cl)cc(-c2noc(-c3cn4cc(C(F)(F)F)cc(Cl)c4n3)n2)cc1Cl` (stereo not shown) [Example 104, 1-[(2,6-dichloro-4-{5-[8-chloro-6-(trifluoromethyl)imidazo[1,2-a]pyridin-2-yl]-1,2,4-oxadiazol-3-yl}phenyl)oxy]propan-2-ol] the value was not above 100 nM; for `OC(CF)COc1cc(Cl)c(-c2noc(-c3cn4cc(C(F)(F)F)cc(Br)c4n3)n2)cc1Cl` (stereo not shown) [Example 110, 1-[(4-{5-[8-bromo-6-(trifluoromethyl)imidazo[1,2-a]pyridin-2-yl]-1,2,4-oxadiazol-3-yl}-2,5-dichlorophenyl)oxy]-3-fluoropropan-2-ol], not above 100 nM; for `OCCNc1ccc(-c2noc(-c3cn4cc(C(F)(F)F)cc(Cl)c4n3)n2)c(Cl)c1` [Example 115, 2-[(3-chloro-4-{5-[8-chloro-6-(trifluoromethyl)imidazo[1,2-a]pyridin-2-yl]-1,2,4-oxadiazol-3-yl}phenyl)amino]ethanol], not above 100 nM.

Take `OCCNCc1cc(Cl)c(-c2noc(-c3cn4cc(C(F)(F)F)cc(Cl)c4n3)n2)cc1Cl` [Example 138, 2-{[(2,5-dichloro-4-{5-[8-chloro-6-(trifluoromethyl)imidazo[1,2-a]pyridin-2-yl]-1,2,4-oxadiazol-3-yl}phenyl)methyl]amino}ethanol]: the EC50 on S1P1 [1] (setting [4]) was in the range of 100 to 500 nM. Still for that read-out and setting: for `CC(Cc1cc(Cl)c(-c2noc(-c3cn4cc(C(F)(F)F)cc(Cl)c4n3)n2)cc1Cl)C(=O)O` (stereo not shown) [Example 190, 3-(2,5-dichloro-4-{5-[8-chloro-6-(trifluoromethyl)imidazo[1,2-a]pyridin-2-yl]-1,2,4-oxadiazol-3-yl}phenyl)-2-methylpropanoic acid] the value was 100 to 500 nM; for `CC(Cc1cc(Cl)c(-c2noc(-c3cn4cc(C(F)(F)F)cc(Br)c4n3)n2)cc1Cl)C(=O)O` (stereo not shown) [Example 225, 3-(4-{5-[8-bromo-6-(trifluoromethyl)imidazo[1,2-a]pyridin-2-yl]-1,2,4-oxadiazol-3-yl}-2,5-dichlorophenyl)-2-methylpropanoic acid], 100 to 500 nM. In the case of `CC(Cc1cc(Cl)c(-c2nc(-c3cn4cc(C(F)(F)F)cc(Cl)c4n3)no2)cc1Cl)C(=O)O` (stereo not shown) [Example 241, 3-(2,5-dichloro-4-{3-[8-chloro-6-(trifluoromethyl)imidazo[1,2-a]pyridin-2-yl]-1,2,4-oxadiazol-5-yl}phenyl)-2-methylpropanoic acid], the EC50 on S1P1 [1] (setting [3]) is not above 100 nM. On to `CC(C)(CO)Oc1c(F)cc(-c2noc(-c3cn4cc(C(F)(F)F)cc(Cl)c4n3)n2)cc1Cl` [Example 262, 2-[(2-chloro-4-{5-[8-chloro-6-(trifluoromethyl)imidazo[1,2-a]pyridin-2-yl]-1,2,4-oxadiazol-3-yl}-6-fluorophenyl)oxy]-2-methylpropan-1-ol], for which, on S1P1 [2] (setting [5]), the EC50 is 1000 to 5000 nM. Consider `Fc1cc(-c2noc(-c3cn4cc(C(F)(F)F)cc(Cl)c4n3)n2)c(Cl)cc1OC1CCNC1` (stereo not shown) [Example 264, 8-chloro-2-{3-[2-chloro-5-fluoro-4-(pyrrolidin-3-yloxy)phenyl]-1,2,4-oxadiazol-5-yl}-6-(trifluoromethyl)imidazo[1,2-a]pyridine], for which the EC50 on S1P1 [2] (read-out: Assay 1 EC50) was not above 100 nM. Consider `CS(=O)(=O)Nc1c(F)cc(-c2noc(-c3cn4cc(C(F)(F)F)cc(Cl)c4n3)n2)cc1F` [Example 265, N-(4-{5-[8-chloro-6-(trifluoromethyl)imidazo[1,2-a]pyridin-2-yl]-1,2,4-oxadiazol-3-yl}-2,6-difluorophenyl)methanesulfonamide], for which, at S1P1 [2] (setting [5]), the EC50 lay in the range of 500 to 1000 nM.

Regarding `CS(=O)(=O)Nc1c(F)cc(-c2noc(-c3cn4cc(C(F)(F)F)cc(Cl)c4n3)n2)cc1Cl` [Example 268, N-(2-chloro-4-{5-[8-chloro-6-(trifluoromethyl)imidazo[1,2-a]pyridin-2-yl]-1,2,4-oxadiazol-3-yl}-6-fluorophenyl)methane sulfonamide], the EC50 at S1P1 [2] (read-out: Assay 1 EC50) is 500 to 1000 nM.

As to `CS(=O)(=O)Nc1ccc(-c2noc(-c3cn4cc(C#N)cc(Cl)c4n3)n2)c(Cl)c1` [Example 269, N-{3-chloro-4-[5-(8-chloro-6-cyanoimidazo[1,2-a]pyridin-2-yl)-1,2,4-oxadiazol-3-yl]phenyl}methanesulfonamide], the concentration giving a half-maximal response (EC50) at S1P1 [2] (setting [5]) was in the range of 5000 to 10000 nM. With `Cc1cc(Cl)c2nc(-c3nc(-c4ccc(NS(C)(=O)=O)cc4Cl)no3)cn2c1` [Example 270, N-{3-chloro-4-[5-(8-chloro-6-methylimidazo[1,2-a]pyridin-2-yl)-1,2,4-oxadiazol-3-yl]phenyl}methanesulfonamide], the concentration giving a half-maximal response (EC50) at S1P1 [2] (setting [5]) lay within 5000 to 10000 nM. Consider `O=c1[nH]c(Cc2ccc(-c3noc(-c4cn5cc(C(F)(F)F)cc(Cl)c5n4)n3)c(Cl)c2)no1` [Example 271, 3-[(3-chloro-4-{5-[8-chloro-6-(trifluoromethyl)imidazo[1,2-a]pyridin-2-yl]-1,2,4-oxadiazol-3-yl}phenyl)methyl]-1,2,4-oxadiazol-5(4H)-one], for which the EC50 on S1P1 [2] (read-out: Assay 1 EC50) was in the range of 100 to 500 nM.

For the compound `FC(F)(F)c1cc(Cl)c2nc(-c3nc(-c4ccccc4Cl)no3)cn2c1` [Example 273, 8-chloro-2-[3-(2-chlorophenyl)-1,2,4-oxadiazol-5-yl]-6-(trifluoromethyl)imidazo[1,2-a]pyridine], the EC50 on S1P1 [2] (read-out: Assay 1 EC50) is not above 100 nM.

With `O=C(O)[C@@H]1C[C@H](Oc2ccc(-c3noc(-c4cn5cc(C(F)(F)F)cc(Cl)c5n4)n3)c(Cl)c2)CN1` [Example 276, (4S)-4-[(3-chloro-4-{5-[8-chloro-6-(trifluoromethyl)imidazo[1,2-a]pyridin-2-yl]-1,2,4-oxadiazol-3-yl}phenyl)oxy]-L-proline], the 50% effective concentration (EC50) at S1P1 [2] (read-out: Assay 1 EC50) was not above 100 nM.

Turning to `CC(=O)OCCOc1c(Cl)cc(-c2noc(-c3cn4cc(C(F)(F)F)cc(Cl)c4n3)n2)cc1Cl` [Example 279, 2-[(2,6-dichloro-4-{5-[8-chloro-6-(trifluoromethyl)imidazo[1,2-a]pyridin-2-yl]-1,2,4-oxadiazol-3-yl}phenyl)oxy]ethyl acetate], on S1P1 [1] (setting [3]), the EC50 is 100 to 500 nM. Take `Fc1ccc(-c2noc(-c3cn4cc(C(F)(F)F)cc(Br)c4n3)n2)c(Cl)c1` [Example 281, 8-bromo-2-[3-(2-chloro-4-fluorophenyl)-1,2,4-oxadiazol-5-yl]-6-(trifluoromethyl)imidazo[1,2-a]pyridine]: at S1P1 [2] (read-out: Assay 1 EC50), the EC50 was 100 to 500 nM. `FC(F)(F)c1cc(Cl)c2nc(-c3nc(-c4cnccc4C(F)(F)F)no3)cn2c1` [Example 290, 8-chloro-6-(trifluoromethyl)-2-{3-[4-(trifluoromethyl)pyridin-3-yl]-1,2,4-oxadiazol-5-yl}imidazo[1,2-a]pyridine]: at S1P1 [2] (read-out: Assay 1 EC50), the concentration giving a half-maximal response (EC50) was in the range of 1000 to 5000 nM. For `N#Cc1cc(C(F)(F)F)cn2cc(-c3nc(-c4ccc(F)cc4Cl)no3)nc12` [Example 291, 2-[3-(2-chloro-4-fluorophenyl)-1,2,4-oxadiazol-5-yl]-6-(trifluoromethyl)imidazo[1,2-a]pyridine-8-carbonitrile], the EC50 at S1P1 [2] (read-out: Assay 1 EC50) was in the range of 100 to 500 nM. For `O=C(O)Cn1ccc2c(-c3noc(-c4cn5cc(C(F)(F)F)cc(Cl)c5n4)n3)cccc21` [Example 293, (4-{5-[8-chloro-6-(trifluoromethyl)imidazo[1,2-a]pyridin-2-yl]-1,2,4-oxadiazol-3-yl}-1H-indol-1-yl)acetic acid], the 50% effective concentration (EC50) at S1P1 [2] (read-out: Assay 1 EC50) lay in the range of 500 to 1000 nM.
